Laboratory results published in patent US9440933B2, “Azole derivative, method for producing same, intermediate compound, and agricultural or horticultural chemical agent and industrial material protecting agent” (KUREHA CORPORATION, priority 2011, dated 2016).

Key:
[1] = system: Barley scald-causing microbe (Rhynchosporium secalis); experiment: Antimicrobial activity to various pathogenic microbes: R.sec; settings: 50 mg/L
Description: (§1) An inventive compound was dissolved in dimethylsulfoxide 2 ml. The solution 0.6 ml was added to a PDA medium (potato-dextrose-agar medium) 60 ml at around 60° C.
(§2) A flat plate containing a test microbe (wheat leaf blight-causing microbe) cultured separately was punched into pieces with a cork borer having a diameter of 4 mm and the circular plate obtained was placed on the flat plate media containing the chemical described above. The plates were cultured at 25° C. for 14 days after inoculation and the diameter of the microbial colony was determined. Hyphal expansion-inhibiting rate was calculated according to the following equation: R=100(dc−dt)/dc (wherein, R: hyphal expansion-inhibiting rate (%), dc: diameter of microbial colony on non-treated flat plate, dt: diameter of microbial colony on chemically-treated flat plate).
(§3) In this Test Example, the antimicrobial activity of the inventive compounds to various plant disease-causing fungi and industrial material-eroding microorganisms was studied by the method described in Example 1.
(§4) The results thus obtained were evaluated in 5 stages according to the criteria below:
Barley scald-causing microbe (Rhynchosporium secalis) R.sec

[2] = system: Wheat fusarium blight-causing microbe (Fusarium graminearum); format: cell-based; settings: 50 mg/L
[3] = system: wheat leaf blight-causing microbe; experiment: Antimicrobial activity to wheat leaf blight-causing microbe (PDA plate, hyphal expansion inhibition); format: cell-based, Septoria tritici; settings: PDA medium, 25° C., 14 days; for Growth inhibition / inhibition at 50 µg/mL: Concentration 50 mg/L; for inhibition at 50 µg/mL: read-out: Growth inhibition
Description: In this Test Example, antimicrobial activity of the inventive compounds to wheat leaf blight-causing microbe was determined and compared with that of the comparative compound (1).

[4] = system: Wheat eye spot-causing microbe (Pseudocercoporella herpotrichoides); experiment: Antimicrobial activity to various pathogenic microbes: P.h; settings: 50 mg/L
Description: as §1
The plates were cultured at 25° C. for 14 days after inoculation and the diameter of the microbial colony was determined. Hyphal expansion-inhibiting rate was calculated according to the following equation: R=100(dc−dt)/dc (wherein, R: hyphal expansion-inhibiting rate (%), dc: diameter of microbial colony on non-treated flat plate, dt: diameter of microbial colony on chemically-treated flat plate).
as §4
Wheat eye spot-causing microbe (Pseudocercoporella herpotrichoides) P.h

[5] = system: Rice blast-causing microbe (Pyricularia oryzae); format: cell-based; settings: 50 mg/L
[6] = system: Cucumber Fusarium wilt-causing microbe (Fusarium oxysporum); experiment: Antimicrobial activity to various pathogenic microbes: F.c; settings: 50 mg/L
Description: as §1, §2, §4

[7] = system: Wheat glume blotch-causing microbe (Phaeosphaeria nodorum); experiment: Antimicrobial activity to various pathogenic microbes: P.n; settings: 50 mg/L
Description: as §1, §2, §3, §4
Wheat glume blotch-causing microbe (Phaeosphaeria nodorum) P.n

[8] = system: Rice bakanae disease-causing microbe (Gibberella fujikuroi); experiment: Antimicrobial activity to various pathogenic microbes: G.f; settings: 50 mg/L
Description: as §1, §2, §4

[9] = system: wheat leaf rust-causing microbe; experiment: Wheat leaf rust-controlling activity (foliar spray, pot test); format: in vivo, Puccinia recondita; settings: Concentration 25 g/ha; wettable powder sprayed on wheat (Norin No. 61), 9 to 14 days after inoculation
[10] = system: Gray mold-causing microbe (Botrytis cinerea); experiment: Antimicrobial activity to various pathogenic microbes: B.c; settings: 50 mg/L
Description: as §1, §2, §3, §4
Gray mold-causing microbe (Botrytis cinerea) B.c

[11] = system: Apple alternaria blotch-causing microbe (Alternaria alternata); experiment: Antimicrobial activity to various pathogenic microbes: A.m; settings: 50 mg/L
[12] = system: Barley loose smut-causing microbe (Ustilago nuda); experiment: Antimicrobial activity to various pathogenic microbes: U.n; settings: 50 mg/L
wheat = experiment: Damage to wheat (growth inhibition) by seed treatment (pot test); settings: 2 mg in DMSO applied to wheat seeds 1 g, 14 to 28 days after seeding, larger index = smaller damage
[13] = system: wheat powdery mildew-causing microbes; experiment: Controlling activity to wheat powdery mildew of seed treatment (pot test); format: in vivo, Erysiphe graminis f. sp tritici; settings: 2 mg in DMSO applied to wheat seeds 1 g, 14 to 28 days after seeding
Description: Controlling activity to wheat powdery mildew was examined in a pot test. Each of the inventive compounds […]-53, and a comparative compound (1) was weighed in an amount of 2 mg and dissolved in DMSO (18 μl). The solution thus prepared was applied to wheat seeds 1 g in a vial, 8 wheat seeds were seeded in a 80 cm^2 pot. The wheat was grown, as water was supplied from blow, in a greenhouse where wheat powdery mildew-causing microbes are present abundantly. The incidence rate was determined and the controlling rate and additionally the controlling index calculated 14 to 28 days after seeding. The controlling rate was calculated and the wheat powdery mildew controlling index determined according to the following equation: Controlling rate=(1-Incidence rate in treated region/Incidence rate in non-treated region)×100(%) [table]

[14] = system: Sclerotinia rot-causing microbe (Sclerotinia sclerotiorum); experiment: Antimicrobial activity to various pathogenic microbes: S.s; settings: 50 mg/L

Structure (SMILES)	Growth inhibition (hyphal expansion-inhibiting rate grade) R.sec [1]	Growth inhibition (hyphal expansion-inhibiting rate grade) F.g [2]	Growth inhibition [3]	Growth inhibition (hyphal expansion-inhibiting rate grade) P.h [4]	Growth inhibition (hyphal expansion-inhibiting rate grade) P.o [5]	Growth inhibition (hyphal expansion-inhibiting rate grade) F.c [6]	Growth inhibition (hyphal expansion-inhibiting rate grade) P.n [7]	Growth inhibition (hyphal expansion-inhibiting rate grade) G.f [8]	Controlling index [9]	Growth inhibition (hyphal expansion-inhibiting rate grade) B.c [10]	Growth inhibition (hyphal expansion-inhibiting rate grade) A.m [11]	Growth inhibition (hyphal expansion-inhibiting rate grade) U.n [12]	Damage index Growth inhibition (wheat)	Controlling index Wheat powdery mildew [13]	Growth inhibition (hyphal expansion-inhibiting rate grade) S.s [14]	inhibition at 50 µg/mL ([3]; 336 h) [%]	inhibition at 1.25 µg/mL ([3]; 336 h, test sample concentration 1.25 mg/L, read-out: hyphal expansion-inhibiting rate) [%]
CNC(=O)[C@]1(C)CC[C@H](Cc2ccc(Cl)cc2)[C@@]1(O)Cn1cncn1 (racemic) [Compound I-148, N-methyl-(1RS,2SR,3RS)-3-(4-chlorobenzyl)-2-hydroxy-1-methyl-2-(1H-1,2,4-triazol-1-ylmethyl)cyclopentane carboxyamide]	5 (hyphal expansion-inhibiting rate: 80% or more)	5 (hyphal expansion-inhibiting rate: 80% or more)	5 (hyphal expansion-inhibiting rate: 80% or more)	5 (hyphal expansion-inhibiting rate: 80% or more)	5 (hyphal expansion-inhibiting rate: 80% or more)	5 (hyphal expansion-inhibiting rate: 80% or more)	5 (hyphal expansion-inhibiting rate: 80% or more)	5 (hyphal expansion-inhibiting rate: 80% or more)	5 (81 to 100)	5 (hyphal expansion-inhibiting rate: 80% or more)	5 (hyphal expansion-inhibiting rate: 80% or more)	5 (hyphal expansion-inhibiting rate: 80% or more)	5	5 (Controlling rate: 40 or more)	5 (hyphal expansion-inhibiting rate: 80% or more)		
C#CCOC(=O)[C@]1(C)CC[C@@H](Cc2ccc(Cl)cc2)[C@]1(O)Cn1cncn1 (racemic) [Compound I-5, 2-propynyl-(1RS,2RS,3SR)-3-(4-chlorobenzyl)-2-hydroxy-1-methyl-2-(1H-1,2,4-triazol-1-ylmethyl)cyclopentanecarboxylate]	5 (hyphal expansion-inhibiting rate: 80% or more)	5 (hyphal expansion-inhibiting rate: 80% or more)	5 (hyphal expansion-inhibiting rate: 80% or more)	5 (hyphal expansion-inhibiting rate: 80% or more)	5 (hyphal expansion-inhibiting rate: 80% or more)	5 (hyphal expansion-inhibiting rate: 80% or more)	5 (hyphal expansion-inhibiting rate: 80% or more)	5 (hyphal expansion-inhibiting rate: 80% or more)	5 (81 to 100)	5 (hyphal expansion-inhibiting rate: 80% or more)	5 (hyphal expansion-inhibiting rate: 80% or more)	5 (hyphal expansion-inhibiting rate: 80% or more)	1 (60% or more and less than 80%)	5 (Controlling rate: 40 or more)	5 (hyphal expansion-inhibiting rate: 80% or more)		
CC(C)OC(=O)[C@]1(C)CC[C@H](Cc2ccc(Cl)cc2)[C@@]1(O)Cn1cncn1 (racemic) [Compound I-137, isopropyl-(1RS,2SR,3RS)-3-(4-chlorobenzyl)-2-hydroxy-1-methyl-2-(1H-1,2,4-triazol-1-ylmethyl)cyclopentanecarboxylate]	5 (hyphal expansion-inhibiting rate: 80% or more)	5 (hyphal expansion-inhibiting rate: 80% or more)		5 (hyphal expansion-inhibiting rate: 80% or more)	5 (hyphal expansion-inhibiting rate: 80% or more)	5 (hyphal expansion-inhibiting rate: 80% or more)	5 (hyphal expansion-inhibiting rate: 80% or more)	5 (hyphal expansion-inhibiting rate: 80% or more)	5 (81 to 100)	5 (hyphal expansion-inhibiting rate: 80% or more)	5 (hyphal expansion-inhibiting rate: 80% or more)	5 (hyphal expansion-inhibiting rate: 80% or more)	5	5 (Controlling rate: 40 or more)	5 (hyphal expansion-inhibiting rate: 80% or more)	> 80	
COC(=O)[C@]1(C)CC[C@H](Cc2ccc(F)cc2)[C@@]1(O)Cn1cncn1 (racemic) [Compound I-53, methyl-(1RS, 2SR,3RS)-3-(4-fluorobenzyl)-2-hydroxy-1-methyl-2-(1H-1,2,4-triazol-1-ylmethyl)cyclopentanecarboxylate]	5 (hyphal expansion-inhibiting rate: 80% or more)	5 (hyphal expansion-inhibiting rate: 80% or more)		5 (hyphal expansion-inhibiting rate: 80% or more)	5 (hyphal expansion-inhibiting rate: 80% or more)	5 (hyphal expansion-inhibiting rate: 80% or more)	5 (hyphal expansion-inhibiting rate: 80% or more)	5 (hyphal expansion-inhibiting rate: 80% or more)	5 (81 to 100)	5 (hyphal expansion-inhibiting rate: 80% or more)	5 (hyphal expansion-inhibiting rate: 80% or more)	5 (hyphal expansion-inhibiting rate: 80% or more)	1 (60% or more and less than 80%)	5 (Controlling rate: 40 or more)	5 (hyphal expansion-inhibiting rate: 80% or more)	> 80	≥ 80
